One block for each molecule: values may come before it.
How the values were obtained:
[1] = system: PC3 (prostate) cancer cell lines; experiment: AlamarBlue cytotoxicity assay, PC3; assay type: cell-based; conditions: for IC50: Homo sapiens, PC-3; for Selectivity index (SI) PC3: ratio IC50 MRC5 / IC50 PC3
Description: (§1) PC3, A375, and MRC5 cell lines were purchased from ATCC and were cultured in Dulbecco’s Modified Eagle Media (DMEM) supplemented with 10% Fetal Bovine Serum (FBS) (Highveld biological), 1% gentamycin and 1% penicillin/streptomycin (Sigma, USA).
(§2) The growth inhibitory effect and cytotoxicity of the compounds were tested in triplicate against two cancer cell lines (PC3 and A375) and one healthy cell line (MRC5), respectively using Alamar Blue assay.
(§3) PC3, A375, and MRC5 cell lines were cultured in 96 well tissue culture plates. […] Cells were treated for 24 h. […] Cell viability was measured using AlamarBlue and readings were obtained in terms of fluorescent values using a microplate reader (BioTek Synergy HT). Samples were exposed to an excitation wavelength of 530 nm and at the emission wavelength of 590 nm. Cell viability percentage was calculated using the formula below: Cellviability=absorbanceoftreatedcells-absorbanceofblank/absorbanceofuntreatedcells-absorbanceofblank×100%

[2] = AlamarBlue cytotoxicity assay, MRC5 normal cells; assay type: cell-based; conditions: human, MRC5 healthy lung cells, 24 h treatment, mean ± SD of three independent experiments
Description: as §1, with “USA). Cells were maintained at 37 °C under 5% of carbon dioxide (CO2) and 95% relative humidity.” for “USA).”
as §2
(§4) PC3, A375, and MRC5 cell lines were cultured in 96 well tissue culture plates. […] Cells were treated for 24 h. 10 µl of AlamarBlue (Thermo Fisher Scientific) was added to each well at 22 h after treatment and incubated for 2 h at 37 °C in the dark since AlamarBlue is light sensitive. Cell viability was measured using AlamarBlue and readings were obtained in terms of fluorescent values using a microplate reader (BioTek Synergy HT). Samples were exposed to an excitation wavelength of 530 nm and at the emission wavelength of 590 nm. Cell viability percentage was calculated using the formula below: Cellviability=absorbanceoftreatedcells-absorbanceofblank/absorbanceofuntreatedcells-absorbanceofblank×100%

[3] = system: A375 (skin) cancer cell lines; experiment: AlamarBlue cytotoxicity assay, A375; assay type: cell-based; conditions: for IC50 / viability at 5 µg/mL / viability at 15 µg/mL / viability at 25 µg/mL / viability at 50 µg/mL / viability at 75 µg/mL / viability at 100 µg/mL: Homo sapiens; for IC50: A-375, 24 h; for IC50 / Cytotoxicity (IC50) A375: A375 cells, 24 h treatment, AlamarBlue, mean ± SD of three independent experiments; for viability at 5 µg/mL / viability at 15 µg/mL / viability at 25 µg/mL / viability at 50 µg/mL / viability at 75 µg/mL / viability at 100 µg/mL: A-375; for Selectivity index (SI) A375: ratio IC50 MRC5 / IC50 A375
Description: as §1, §2, §3

[4] = system: MRC5 (healthy lung) cell lines; experiment: AlamarBlue cytotoxicity assay, MRC5 normal cells; assay type: cell-based; conditions: 24 h treatment, mean ± SD of three independent experiments
Description: as §1, with “USA). Cells were maintained at 37 °C under 5% of carbon dioxide (CO2) and 95% relative humidity.” for “USA).”
as §2, §4

[5] = PC3 cells, 24 h treatment, AlamarBlue, mean ± SD of three independent experiments

- melting point: 196 to 198 °C
SMILES: O=C([O-])[C@H](Cc1c[nH]c2ccccc12)/N=C/c1ccccc1OCc1cn(-c2ccccc2)nn1.[Na+] [Compound 3, sodium (s,e)-3-(1H-indol-3-yl)-2-((2-((1-phenyl-1H-1,2,3-triazol-4-yl)methoxy)benzylidene)amino)propanoate]
- IC50 [1, 5]: 40.5 ± 1.06 µg/mL
- viability at 5 µg/mL ([1]; PC3, 5 µg/mL): 77%
- viability at 15 µg/mL ([1]; PC3, 15 µg/mL): 65.3%
- viability at 25 µg/mL ([1]; PC3, 25 µg/mL): 58%
- viability at 50 µg/mL ([1]; PC3, 50 µg/mL): 44%
- viability at 75 µg/mL ([1]; PC3, 75 µg/mL): 22%
- viability at 100 µg/mL ([1]; PC3, 100 µg/mL): 16%
- Selectivity index (SI) PC3 [1]: 2.13
- IC50 at 24 h [2]: 86.4 ± 2.64 µg/mL
- IC50 [3]: 21.9 ± 0.52 µg/mL
- viability at 5 µg/mL ([3]; A375, 5 µg/mL): 68%
- viability at 15 µg/mL ([3]; A375, 15 µg/mL): 57.7%
- viability at 25 µg/mL ([3]; A375, 25 µg/mL): 42%
- viability at 50 µg/mL ([3]; A375, 50 µg/mL): 23%
- viability at 75 µg/mL ([3]; A375, 75 µg/mL): 14%
- viability at 100 µg/mL ([3]; A375, 100 µg/mL): 9%
- Selectivity index (SI) A375 [3]: 3.95

- melting point: 146 to 148 °C
SMILES: O=C(O)CCC(/N=C/c1ccccc1OCc1cn(-c2ccccc2)nn1)C(=O)O (stereo in doubt) [Compound 2, (s,e)-2-((2-((1-phenyl-1H-1,2,3-triazol-yl)methoxy)benzylidene)amino)pentanedioic acid]
- IC50 [1, 5]: 60.6 ± 1.42 µg/mL
- Activity for the proliferation of the PC3 cancer cell lines (in words) [1]: moderate activity
- viability at 5 µg/mL ([1]; PC3, 5 µg/mL): 90.3%
- viability at 15 µg/mL ([1]; PC3, 15 µg/mL): 81%
- viability at 25 µg/mL ([1]; PC3, 25 µg/mL): 71%
- viability at 50 µg/mL ([1]; PC3, 50 µg/mL): 56%
- viability at 75 µg/mL ([1]; PC3, 75 µg/mL): 36%
- viability at 100 µg/mL ([1]; PC3, 100 µg/mL): 28%
- Selectivity index (SI) PC3 [1]: 1.41
- IC50 at 24 h [2]: 85.3 ± 2.27 µg/mL
- Cytotoxicity (IC50) A375 [3]: 36.12 ± 0.87 µg/mL
- IC50 [3]: 36.1 to 40.4 µg/mL
- viability at 5 µg/mL ([3]; A375, 5 µg/mL): 75.7%
- viability at 15 µg/mL ([3]; A375, 15 µg/mL): 67%
- viability at 25 µg/mL ([3]; A375, 25 µg/mL): 53.3%
- viability at 50 µg/mL ([3]; A375, 50 µg/mL): 34%
- viability at 75 µg/mL ([3]; A375, 75 µg/mL): 20.7%
- viability at 100 µg/mL ([3]; A375, 100 µg/mL): 14%
- Selectivity index (SI) A375 [3]: 2.36

SMILES: O=C(O)C(Cc1ccccc1)/N=C/c1ccccc1OCc1cn(-c2ccccc2)nn1 (stereo not drawn) [Compound 6, (e)-3-phenyl-2-((2-((1-phenyl-1H-1,2,3-triazol-4-yl)methoxy)benzylidene)amino)propanoic acid]
- Cell viability (%) ([1]; PC3, 5 µg/mL): 79%
- Cell viability (%) ([1]; PC3, 15 µg/mL): 68%
- Cell viability (%) ([1]; PC3, 25 µg/mL): 60%
- Cell viability (%) ([1]; PC3, 50 µg/mL): 49%
- Cell viability (%) ([1]; PC3, 75 µg/mL): 26%
- Cell viability (%) ([1]; PC3, 100 µg/mL): 18%
- Cytotoxicity (IC50) PC3 [1, 5]: 45.00 ± 1.12 µg/mL
- Selectivity index (SI) PC3 [1]: 2.07
- Cytotoxicity (IC50) MRC5 [4]: 93.07 ± 2.42 µg/mL
- Cell viability (%) ([3]; A375, 5 µg/mL): 68%
- Cell viability (%) ([3]; A375, 15 µg/mL): 57.67%
- Cell viability (%) ([3]; A375, 25 µg/mL): 45%
- Cell viability (%) ([3]; A375, 50 µg/mL): 27%
- Cell viability (%) ([3]; A375, 75 µg/mL): 16%
- Cell viability (%) ([3]; A375, 100 µg/mL): 8%
- Cytotoxicity (IC50) A375 [3]: 24.18 ± 0.57 µg/mL
- Selectivity index (SI) A375 [3]: 3.85

- melting point: 148 to 150 °C
SMILES: O=C([O-])[C@H](Cc1ccc([O-])cc1)/N=C/c1ccccc1OCc1cn(-c2ccccc2)nn1.[Na+].[Na+] [Compound 4, sodium (s,e)-3-(4-oxidophenyl)-2-((2-((1-phenyl-1H-1,2,3-triazol-4-yl)methoxy)benzylidene)amino)propanoate]
- IC50 [1, 5]: 55.7 ± 1.28 µg/mL
- Activity for the proliferation of the PC3 cancer cell lines (in words) [1]: moderate activity
- viability at 5 µg/mL ([1]; PC3, 5 µg/mL): 84%
- viability at 15 µg/mL ([1]; PC3, 15 µg/mL): 78%
- viability at 25 µg/mL ([1]; PC3, 25 µg/mL): 70%
- viability at 50 µg/mL ([1]; PC3, 50 µg/mL): 56%
- viability at 75 µg/mL ([1]; PC3, 75 µg/mL): 34%
- viability at 100 µg/mL ([1]; PC3, 100 µg/mL): 21.3%
- Selectivity index (SI) PC3 [1]: 1.59
- IC50 at 24 h [2]: 88.4 ± 2.38 µg/mL
- IC50 [3]: 24.8 ± 0.61 µg/mL
- viability at 5 µg/mL ([3]; A375, 5 µg/mL): 68.7%
- viability at 15 µg/mL ([3]; A375, 15 µg/mL): 59.7%
- viability at 25 µg/mL ([3]; A375, 25 µg/mL): 45%
- viability at 50 µg/mL ([3]; A375, 50 µg/mL): 25%
- viability at 75 µg/mL ([3]; A375, 75 µg/mL): 16%
- viability at 100 µg/mL ([3]; A375, 100 µg/mL): 11%
- Selectivity index (SI) A375 [3]: 3.56

- melting point: 147 to 149 °C
SMILES: O=Cc1ccccc1OCc1cn(-c2ccccc2)nn1 [Compound 1, 2-((1-phenyl-1H-1,2,3-triazol-4-yl)methoxy)benzaldehyde]
- IC50 [1, 5]: 75 ± 1.82 µg/mL
- viability at 5 µg/mL ([1]; PC3, 5 µg/mL): 95%
- viability at 15 µg/mL ([1]; PC3, 15 µg/mL): 89%
- viability at 25 µg/mL ([1]; PC3, 25 µg/mL): 80%
- viability at 50 µg/mL ([1]; PC3, 50 µg/mL): 63%
- viability at 75 µg/mL ([1]; PC3, 75 µg/mL): 47%
- viability at 100 µg/mL ([1]; PC3, 100 µg/mL): 38%
- Selectivity index (SI) PC3 [1]: 1.02
- IC50 at 24 h [2]: 76.9 ± 1.87 µg/mL
- Cytotoxicity (IC50) A375 [3]: 40.37 ± 1.03 µg/mL
- IC50 [3]: 36.1 to 40.4 µg/mL
- viability at 5 µg/mL ([3]; A375, 5 µg/mL): 79%
- viability at 15 µg/mL ([3]; A375, 15 µg/mL): 69%
- viability at 25 µg/mL ([3]; A375, 25 µg/mL): 55%
- viability at 50 µg/mL ([3]; A375, 50 µg/mL): 37%
- viability at 75 µg/mL ([3]; A375, 75 µg/mL): 24%
- viability at 100 µg/mL ([3]; A375, 100 µg/mL): 18%
- Selectivity index (SI) A375 [3]: 1.90

— publication PMC10960833, “1,2,3-triazole and chiral Schiff base hybrids as potential anticancer agents: DFT, molecular docking and ADME studies” (Scientific Reports, 2024)
